Data taken from patent US20040033517A1, “Compositions and methods relating to endothelial cell signaling using the protease activated receptor (PAR1)” (priority 2002, published 2004).
Like-named read-outs stand apart in the source and are kept apart here. Ends that are not written are not given here.

What was measured:
[1] = systemically and locally induced sepsis models; Zisman 1997, Bone-Larson 2000; cited from earlier work
primary HUVEC = experiment: TaqMan real-time RT-PCR of gene induction in primary HUVEC; type: cell-based, human; conditions: primary endothelial cells, quantitative PCR, FIG. 3A
Procedure: TaqMan Real Time PCR. For TaqMan (Applied Biosystems) real-time RT-PCR 4 μg total cellular RNA from stimulated primary HUVEC was reverse transcribed followed by RNAse treatment using the Superscript Kit (Invitrogen). TaqMan probes were custom designed for genes of interests. All samples were normalized with human GAPDH probes and primers obtained from Applied Biosystems.

[2] = system: human umbilical vein endothelial cells HUVEC-C; type: cell-based
Source text: Microarray Analysis. […] Total RNA was isolated followed by reverse transcription. Purified double stranded cDNA was in vitro transcribed in the presence of biotinylated dUTP and dCTP, fragmented cRNA was hybridized to the HG-U95Av2 array (Affymetrix, Santa Clara, Calif.), followed by staining with streptavidin-phycoerythrin. Arrays were scanned and analyzed using GeneChip3.1 software. […] An average fold-induction for the three independent experiments was obtained by calculating the means of the logarithm of the individual fold-increases for each agonist.

[3] = HUVEC-C, 90 min, genes represented in FIG. 2 A-C
[4] = HUVEC-C, 90 min, higher variability, PAR1 enhanced (<1.3 fold with PAR2 agonist)
[5] = HUVEC-C, 90 min, higher variability, PAR2 enhanced (<1.3 fold with PAR1 agonist)
[6] = HUVEC-C, 90 min, higher variability, genes not induced by APC (<1.3 fold with APC)

Substance: MCP-1: monocyte chemoattractant protein-1, chemokine administered in cited sepsis models
- Effect of administration in sepsis models [1]: protective

Substance: TFLLRNPNDK [PAR1]
- MCP-1 induction, time course (primary HUVEC): similarly induced
- Average fold induction, AKAP12 U81607 A-KINASE ANCHOR PROTEIN 12, GRAVIN [2]: 1.39 fold
- Average fold induction, BCL2A1 U27467 BCL2 RELATED PROTEIN A1, BFL-1 [2]: 2.04 fold
- Average fold induction, BIRC3 U45878 HUMAN INHIBITOR OF APOPTOSIS PROTEIN (IAP) 1 [2]: 2.39 fold
- Average fold induction, DUSP1 X68277 DUAL-SPECIFICITY PHOSPHATASE 1 [2]: 2.05 fold
- Average fold induction, DUSP5 U15932 DUAL-SPECIFICITY PHOSPHATASE 5 [2]: 2.93 fold
- Average fold induction, GADD45B AF078077 GROWTH ARREST- AND DNA DAMAGE-INDUCIBLE GENE GADD45, BETA [2]: 1.26 fold
- Average fold induction, IER3 S81914 IMMEDIATE-EARLY RESPONSE 3 [2]: 1.30 fold
- Average fold induction, NAB1 AF045451 NGFIA-BINDING PROTEIN [2]: 1.49 fold
- Average fold induction, NFKBIA M69043 NUCLEAR FACTOR OF KAPPA LIGHT CHAIN GENE ENHANCER IN B CELLS INHIBITOR, ALPHA [2]: 1.38 fold
- Average fold induction, TNFAIP3 M59465 TUMOR NECROSIS FACTOR-ALPHA-INDUCED PROTEIN 3, A20 [2]: 1.39 fold
- Average fold induction, ZFP36 M92843 ZINC FINGER PROTEIN 36, TRISTETRAPROLIN (TTP) [2]: 1.98 fold
- Average Induction, A1288757 qm11h01.x1 Homo sapiens cDNA [2, 3]: 1.8 fold
- Average Induction, A1670788 tz10c02.x1 Homo sapiens cDNA [2, 3]: 1.5 fold
- Average Induction, A1985272 ws06b05.x1 Homo sapiens cDNA [2, 3]: 1.3 fold
- Average Induction, A8022718 Homo sapiens m.RNA for DEPP (decidual protein induced by progesterone) [2, 3]: 1.3 fold
- Average Induction, AB004066 Homo sapiens mRNA for DEC1 [2, 3]: 1.5 fold
- Average Induction, AB014569 Homo sapiens mRNA for K1AA0669 protein [2, 3]: 1.3 fold
- Average Induction, AF017786 Homo sapiens phosphatidic acid phosphohydrolase homolog (Dri42) [2, 3]: 1.6 fold
- Average Induction, AF022375 Homo sapiens vascular endothelial growth factor mRNA [2, 3]: 1.5 fold
- Average Induction, AF039843 Homo sapiens Sprouty 2 (SPRY2) mRNA [2, 3]: 1.6 fold
- Average Induction, AF045451 Homo sapiens transcriptional regulatory protein p54 [2, 3]: 1.5 fold
- Average Induction, AF050110 Homo sapiens TGFb inducible early protein and early growth response protein alpha genes [2, 3]: 1.7 fold
- Average Induction, AF054182 Homo sapiens mitochondrial processing peptidase beta-subunit mRNA [2, 3]: 1.8 fold
- Average Induction, AF068197 Homo sapiens BCE-1 mRNA [2, 3]: 1.5 fold
- Average Induction, AF078077 Homo sapiens growth arrest and DNA-damage-inducible protein GADD45beta [2, 3]: 1.3 fold
- Average Induction, AJ005821 Homo sapiens mRNA for X-like 1 protein [2, 3]: 2.4 fold
- Average Induction, AL023584 Human DNA sequence from clone 67K17 on chromosome 6q24.1-24.3. [2, 3]: 1.8 fold
- Average Induction, AL031432 Human DNA sequence from clone 465N24 on chromosome 1p35.1-36.13. [2, 3]: 1.9 fold
- Average Induction, AL050078 Homo sapiens mRNA; cDNA DKFZp566G0746 [2, 3]: 1.6 fold
- Average Induction, AL096858 Novel human gene mapping to chomosome 1 [2, 3]: 1.3 fold
- Average Induction, Cluster Incl M22489 Human bone morphogenetic protein 2A (BMP-2A) [2, 3]: 2.4 fold
- Average Induction, Cluster Incl U12767 Human mitogen induced nuclear orphan receptor (MINOR) [2, 3]: 2.4 fold
- Average Induction, D15050 Human mRNA for transcription factor AREB6 [2, 3]: 2.1 fold
- Average Induction, D50917 Human mRNA for KIAA0127 gene [2, 3]: 1.4 fold
- Average Induction, D78579 Homo sapiens mRNA for neuron derived orphan receptor [2, 3]: 2.6 fold
- Average Induction, D86181 Homo sapiens DNA for galactocerebrosidase [2, 3]: 1.9 fold
- Average Induction, Guanine Nucleotide Exchange Factor 2 [2, 3]: 1.4 fold
- Average Induction, J02931 Human placental tissue factor (two forms) mRNA [2, 3]: 3.0 fold
- Average Induction, J04076 Human early growth response 2 protein (EGR2) mRNA [2, 3]: 2.0 fold
- Average Induction, J04111 Human c-jun proto oncogene (JUN) [2, 3]: 1.7 fold
- Average Induction, L05072 Homo sapiens interferon regulatory factor 1 gene [2, 3]: 1.9 fold
- Average Induction, L19871 Human activating transcription factor 3 (ATF3) [2, 3]: 2.5 fold
- Average Induction, L43821 Homo sapiens enhancer of filamentation (HEF1) mRNA [2, 3]: 1.4 fold
- Average Induction, M22489/FEATURE Human bone morphogenetic protein 2A (BMP-2A) [2, 3]: 2.3 fold
- Average Induction, M26683 Human interferon gamma treatment inducible mRNA [2, 3]: 1.6 fold
- Average Induction, M28211 Homo sapiens GTP-binding protein (RAB4) mRNA [2, 3]: 2.0 fold
- Average Induction, M28225 Human JE gene encoding a monocyte secretory protein [= MCP-1] [2, 3]: 2.1 fold
- Average Induction, M29039 Human transactivator (jun-B) gene [2, 3]: 2.8 fold
- Average Induction, M30474 Human kidney gamma-glutamyl transpeptidase type II mRNA [2, 3]: 2.7 fold
- Average Induction, M31516 Human decay-accelerating factor mRNA [2, 3]: 1.7 fold
- Average Induction, M36820 Human cytokine (GRO-beta) mRNA [2, 3]: 2.1 fold
- Average Induction, M59465 Human tumor necrosis factor alpha inducible protein A20 mRNA [2, 3]: 1.4 fold
- Average Induction, M60278 Human heparin-binding EGF-like growth factor mRNA [2, 3]: 3.6 fold
- Average Induction, M60721 Human homeobox gene [2, 3]: 2.8 fold
- Average Induction, M69043 Homo sapiens MAD-3 mRNA encoding 1kB-like activity [2, 3]: 1.4 fold
- Average Induction, M92843 H.sapiens zinc finger transcriptional regulator mRNA [2, 3]: 2.0 fold
- Average Induction, S81439 EGR alpha=early growth response gene alpha [2, 3]: 1.8 fold
- Average Induction, S81914 IEX-1=radiation-inducible immediate-early gene [2, 3]: 1.3 fold
- Average Induction, U04636 Human cyclooxygenase-2 (hCox-2) gene [2, 3]: 1.3 fold
- Average Induction, U07802 Human Tis1 1d gene [2, 3]: 1.5 fold
- Average Induction, U08015 Human NF-ATc mRNA [2, 3]: 1.4 fold
- Average Induction, U12767/FEATURE Human mitogen induced nuclear orphan receptor (MINOR) [2, 3]: 4.9 fold
- Average Induction, U15932 Human dual-specificity protein phosphatase [2, 3]: 2.9 fold
- Average Induction, U25997 Homo sapiens stanniocalcin precursor (STC) mRNA [2, 3]: 1.6 fold
- Average Induction, U43142 Human vascular endothelial growth factor related protein VRP [2, 3]: 1.4 fold
- Average Induction, U59863 Human TRAF-interacting protein I-TRAF mRNA [2, 3]: 1.3 fold
- Average Induction, U75697 Human transcription regulator RPD3-2B mRNA [2, 3]: 2.7 fold
- Average Induction, U79259 Human clone 23945 mRNA [2, 3]: 1.5 fold
- Average Induction, U81607 Homo sapiens gravin mRNA [2, 3]: 1.4 fold
- Average Induction, W27545 32c4 Homo sapiens cDNA [2, 3]: 1.2 fold
- Average Induction, X51345 Human jun-B mRNA for JUN-B protein [2, 3]: 1.8 fold
- Average Induction, X63741 H.sapiens pilot mRNA [2, 3]: 1.9 fold
- Average Induction, X68277 H.sapiens CL 100 mRNA for protein tyrosine phosphatase [2, 3]: 2.1 fold
- Average Induction, X75918 H.sapiens mRNA for NOT [2, 3]: 2.3 fold
- Average Induction, X89066 H.sapiens mRNA for TRPC1 protein [2, 3]: 2.6 fold
- Average Induction, X94216 H.sapiens mRNA for VEGF-C protein [2, 3]: 1.4 fold
- Average Induction, Y00630 Human mRNA for Arg-Serpin (plasminogen activator-inhibitor 2, PAI-2) [2, 3]: 2.2 fold
- Average Induction, Z25821 H.sapiens gene for mitochondrial dodecenoyl-CoA delta-isomerase [2, 3]: 1.1 fold
- Average Induction, Z48054 H.sapiens mRNA for peroxisomal targeting signal 1 (SKL type) receptor [2, 3]: 2.0 fold
- Average Induction, L13740 Human TR3 orphan receptor mRNA ([2]; HUVEC-C, 90 min, genes represented in FIG. 2 A-C, first probe set): 4.8 fold
- Average Induction, L13740 Human TR3 orphan receptor mRNA ([2]; HUVEC-C, 90 min, genes represented in FIG. 2 A-C, second probe set): 4.7 fold
- Average Induction, A1186701 qe82d12.x1 Homo sapiens cDNA [2, 4]: 1.9 fold
- Average Induction, A1953789 wx69d10.x1 Homo sapiens cDNA [2, 4]: 1.3 fold
- Average Induction, AF024710 Homo sapiens vascular endothelial growth factor (VEGF) [2, 4]: 1.4 fold
- Average Induction, AL035297 H.sapiens gene from PAC 747L4 [2, 4]: 1.7 fold
- Average Induction, M22299 Human T-plastin polypeptide mRNA [2, 4]: 1.6 fold
- Average Induction, U35735 Human RACH1 (RACH1) mRNA [2, 4]: 1.8 fold
- Average Induction, U87460 Human putative endothelin receptor type B-like protein mRNA [2, 4]: 1.4 fold
- Average Induction, A1038821 ox96d03.x1 Homo sapiens cDNA [2, 5]: 1.2 fold
- Average Induction, AC004475 Homo sapiens chromosome 19, cosmid F23858 [2, 5]: 1.2 fold
- Average Induction, AL049354 Homo sapiens mRNA; cDNA DKFZp566E183 [2, 5]: 1.1 fold
- Average Induction, L38696 Homo sapiens autoantigen p542 mRNA [2, 5]: 1.0 fold
- Average Induction, U27655 Human RGP3 mRNA [2, 5]: 1.2 fold
- Average Induction, U53831 Homo sapiens interferon regulatory factor 7B [2, 5]: 1.1 fold
- Average Induction, U58334 Human Bcl2, p53 binding protein Bbp/53BP2 (BBP/53BP2) mRNA [2, 5]: 1.1 fold
- Average Induction, U65093 Human msg1-related gene 1 (mrg1) mRNA [2, 5]: 1.3 fold
- Average Induction, W26851 17b12 Homo sapiens cDNA [2, 5]: 1.2 fold
- Average Induction, Y13115 Homo sapiens mRNA for serine/threonine protein kinase SAK [2, 5]: 1.2 fold
- Average Induction, Z25821 H.sapiens gene for mitochondrial dodecenoyl-CoA delta-isomerase [2, 5]: 1.1 fold
- Average Induction, AB028069 Homo sapiens mRNA for activator of S phase Kinase [2, 6]: 2.0 fold
- Average Induction, D38537 Human mRNA for protoporphyrinogen oxidase [2, 6]: 1.3 fold
- Average Induction, M83667 Human NF-IL6-beta protein [2, 6]: 1.4 fold
- Average Induction, U78082 Human RNA polymerase transcriptional regulation mediator (h-MED6) mRNA [2, 6]: 1.9 fold
- Average Induction, U85267 Homo sapiens down syndrome candidate region 1 (DSCR1) gene [2, 6]: 1.6 fold
- Induction of the MCP-1 transcript (microarray, text) ([2]; endothelial cells, 90 minutes): only induced by the PAR1 agonist
